# Results from patent US20120129842A1, “BISTHIAZOLE INHIBITORS OF PRO-MATRIX METALLOPROTEINASE ACTIVATION” (priority 2010, published 2012).
# Counter-ions that a name gives are not always drawn.
# Assays:
# [1] = target: proMMP13(1-268) (SEQ ID NO:7) (Homo sapiens, UniProt P45452); test: ThermoFluor binding assay with proMMP13(1-268); design: 6xHis (C); made in house; settings: pH 7.0
# In short: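 Thermal shift binding with 3.5 μM protein and 25 μM 1,8-ANS in 50 mM HEPES pH 7.0, 100 mM NaCl, 0.001% Tween-20, 2.5 mM MgCl2, 300 μM CaCl2. Samples were heated 40 to 90 °C at 1 °C/min, fluorescence read at 500 nm. Tm shifts across an 11-point DMSO dilution series were fitted with DSC-derived thermodynamic parameters.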
# [2] = target: T1, proMMP9(67-444;ΔFnII) (SEQ ID NO:5) (Homo sapiens, UniProt P14780, DEL216-390); test: ThermoFluor binding assay with proMMP9(67-444;ΔFnII); settings: pH 7.0
# T1 construct: start methionine (N); made in house; host or cells: E. coli BL21(DE3) RIL
# T1 sequence (P14780 with tags, fused parts or gaps DEL216-390): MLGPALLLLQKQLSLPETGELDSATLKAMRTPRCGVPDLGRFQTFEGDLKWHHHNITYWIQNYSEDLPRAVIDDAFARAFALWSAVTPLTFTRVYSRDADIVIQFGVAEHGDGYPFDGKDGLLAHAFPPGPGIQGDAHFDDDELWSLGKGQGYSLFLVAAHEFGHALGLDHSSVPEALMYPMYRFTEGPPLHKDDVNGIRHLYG
# In short: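 Thermal shift binding with 3.5 μM proMMP9(67-444;ΔFnII) and 50 μM 1,8-ANS in 50 mM HEPES pH 7.0, 100 mM NaCl, 2.5 mM MgCl2, 300 μM CaCl2, 0.001% Tween-20, with serially diluted compound. Heated 40 to 90° C at 1° C/min; fluorescence-derived Tm fitted using DSC/ThermoFluor thermodynamic parameters.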
# [3] = target: T2, proMMP9(20-445;ΔFnII) (SEQ ID NO:6) (Homo sapiens, UniProt P14780, DEL216-390); test: ThermoFluor binding assay with proMMP9(20-445;ΔFnII); settings: pH 7.0
# T2 construct: start methionine (N); made in house; host or cells: E. coli BL21(DE3) RIL
# T2 sequence (P14780 with tags, fused parts or gaps DEL216-390): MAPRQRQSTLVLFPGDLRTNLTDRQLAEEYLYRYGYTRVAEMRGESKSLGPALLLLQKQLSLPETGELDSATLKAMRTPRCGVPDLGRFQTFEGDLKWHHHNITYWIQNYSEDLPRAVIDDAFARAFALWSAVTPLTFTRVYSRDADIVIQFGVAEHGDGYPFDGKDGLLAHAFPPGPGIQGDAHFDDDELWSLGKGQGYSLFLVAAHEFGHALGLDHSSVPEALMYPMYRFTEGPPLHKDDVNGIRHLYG
# In short: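 proMMP9(20-445;ΔFnII) at 2.8 μM with 50 μM 1,8-ANS in 50 mM HEPES pH 7.0, 100 mM NaCl, 0.001% Tween-20, 2.5 mM MgCl2, 300 μM CaCl2; compounds serially diluted in DMSO. Heated 40–90 °C at 1 °C/min, fluorescence read at 500±25 nm. Tm fit by standard equations; binding fit using DSC/TF-derived thermodynamic parameters.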
# [4] = target: T3, full-length proMMP9(1-707) (SEQ ID NO:1) (Homo sapiens, UniProt P14780, R574P); test: proMMP9/MMP3 P126 Activation Assay; assay type: biochemical; settings: 20 nM proMMP9, 20 nM MMP3, 80 min 37° C.
# T3 construct: made in house; host or cells: HEK293 (proMMP9, secreted); E. coli (MMP3)
# T3 sequence (P14780 20-707 R574P): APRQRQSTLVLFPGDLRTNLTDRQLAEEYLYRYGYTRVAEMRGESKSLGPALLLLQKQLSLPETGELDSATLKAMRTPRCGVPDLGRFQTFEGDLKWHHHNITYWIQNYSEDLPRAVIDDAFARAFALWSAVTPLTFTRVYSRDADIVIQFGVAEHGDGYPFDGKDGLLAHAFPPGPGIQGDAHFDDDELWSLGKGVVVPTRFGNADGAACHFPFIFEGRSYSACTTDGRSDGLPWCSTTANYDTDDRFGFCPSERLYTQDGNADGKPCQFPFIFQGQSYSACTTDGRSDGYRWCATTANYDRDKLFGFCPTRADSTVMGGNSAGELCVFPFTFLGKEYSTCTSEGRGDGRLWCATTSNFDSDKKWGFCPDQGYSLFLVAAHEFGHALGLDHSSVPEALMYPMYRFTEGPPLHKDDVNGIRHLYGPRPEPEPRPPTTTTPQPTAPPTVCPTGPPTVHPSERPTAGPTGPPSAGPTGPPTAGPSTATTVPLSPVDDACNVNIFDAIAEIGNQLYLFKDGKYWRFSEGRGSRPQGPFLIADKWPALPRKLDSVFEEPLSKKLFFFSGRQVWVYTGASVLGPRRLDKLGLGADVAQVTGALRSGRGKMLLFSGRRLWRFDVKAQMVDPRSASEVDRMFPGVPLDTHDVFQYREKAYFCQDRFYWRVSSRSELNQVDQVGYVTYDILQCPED
# Method: The reaction volume was 50 μL. […] Reactivity of residual MMP3 towards P-126 substrate was minimal under these conditions.
Kd [1] [nM],Kd [2] [nM],Kd [3] [nM],IC50 [4] [nM],Structure (SMILES)
> 95000,> 95000,3800,5700,"Cc1nc(C(=O)N2CCN(c3ccc(C(F)(F)F)cn3)CC2)sc1-c1csc(Nc2cc(C(N)=O)ccc2OC(C)C)n1 [Example 109, 4-Isopropoxy-3-{4′-methyl-2′-[4-(5-trifluoromethyl-pyridin-2-yl)-piperazine-1-carbonyl]-[4,5′]bithiazolyl-2-ylamino}-benzamide.TFA]"
690,480,130,200,"Cc1nc(C(=O)N2CCC(N(C)C)CC2)sc1-c1csc(Nc2cc(C(N)=O)ccc2OC(C)C)n1 [Example 110, 3-[2′-(4-Dimethylamino-piperidine-1-carbonyl)-4′-methyl-[4,5]bithiazolyl-2-ylamino]-4-isopropoxy-benzamide.TFA]"
360,290,86,81,"Cc1nc(C(=O)NC2CCN(C(C)C)CC2)sc1-c1csc(Nc2cc(C(N)=O)ccc2OC(C)C)n1 [Example 111, 2-(5-Carbamoyl-2-isopropoxy-phenylamino)-4′-methyl-[4,5′]bithiazolyl-2′-carboxylic acid (1-isopropyl-piperidin-4-yl)-amide.TFA]"
> 57000,2200,1400,520,"Cc1nc(C(=O)N2CCCN(C(C)C)CC2)sc1-c1csc(Nc2cc(C(N)=O)ccc2OC(C)C)n1 [Example 112, 4-Isopropoxy-3-[2′-(4-isopropyl-[1,4]diazepane-1-carbonyl)-4′-methyl-[4,5]bithiazolyl-2-ylamino]-benzamide.TFA]"
> 57000,1900,1500,570,"Cc1nc(C(=O)NC2CCN(C)CC2)sc1-c1csc(Nc2cc(C(N)=O)ccc2OC(C)C)n1 [Example 113, 2-(5-Carbamoyl-2-isopropoxy-phenylamino)-4′-methyl-[4,5′]bithiazolyl-2′-carboxylic acid (1-methyl-piperidin-4-yl)-amide.TFA]"
1800,960,690,310,"CCN1CCCN(C(=O)c2nc(C)c(-c3csc(Nc4cc(C(N)=O)ccc4OC(C)C)n3)s2)CC1 [Example 114, 3-[2′-(4-Ethyl-[1,4]diazepane-1-carbonyl)-4′-methyl-[4,5′]bithiazolyl-2-ylamino]-4-isopropoxy-benzamide.TFA]"
6400,3800,2800,880,"CCOc1ccc(C(N)=O)cc1Nc1nc(-c2sc(C(=O)N3CCN(C)CC3)nc2C)cs1 [Example 115, 4-Ethoxy-3-[4′-methyl-2′-(4-methyl-piperazine-1-carbonyl)-[4,5′]bithiazolyl-2-ylamino]-benzamide.TFA]"
6700,1400,2700,500,"CCOc1ccc(C(N)=O)cc1Nc1nc(-c2sc(C(=O)N3CCCN(C(C)C)CC3)nc2C)cs1 [Example 116, 4-Ethoxy-3-[2′-(4-isopropyl-[1,4]diazepane-1-carbonyl)-4′-methyl-[4,5]bithiazolyl-2-ylamino]-benzamide.TFA]"
6900,2000,680,670,"CCOc1ccc(C(N)=O)cc1Nc1nc(-c2sc(C(=O)N3CCN(CC)CC3)nc2C)cs1 [Example 117, 4-Ethoxy-3-[2′-(4-ethyl-piperazine-1-carbonyl)-4′-methyl-[4,5]bithiazolyl-2-ylamino]-benzamide.TFA]"
5500,1200,640,1100,"CCOc1ccc(C(N)=O)cc1Nc1nc(-c2sc(C(=O)N3CCN(C(C)C)CC3)nc2C)cs1 [Example 118, 4-Ethoxy-3-[2′-(4-isopropyl-piperazine-1-carbonyl)-4′-methyl-[4,5]bithiazolyl-2-ylamino]-benzamide.TFA]"
6200,2200,3300,520,"CCOc1ccc(C(N)=O)cc1Nc1nc(-c2sc(C(=O)N3CCCN(C)CC3)nc2C)cs1 [Example 119, 4-Ethoxy-3-[4′-methyl-2′-(4-methyl-[1,4]diazepane-1-carbonyl)-[4,5′]bithiazolyl-2-ylamino]-benzamide.TFA]"
5600,1600,2500,480,"CCOc1ccc(C(N)=O)cc1Nc1nc(-c2sc(C(=O)N3CCCN(CC)CC3)nc2C)cs1 [Example 120, 4-Ethoxy-3-[2′-(4-ethyl-[1,4]diazepane-1-carbonyl)-4′-methyl-[4,5]bithiazolyl-2-ylamino]-benzamide.TFA]"
8700,1200,2400,370,"CCOc1ccc(C(N)=O)cc1Nc1nc(-c2sc(C(=O)NC3CCN(C)CC3)nc2C)cs1 [Example 121, 2-(5-Carbamoyl-2-ethoxy-phenylamino)-4′-methyl-[4,5′]bithiazolyl-2′-carboxylic acid (1-methyl-piperidin-4-yl)-amide.TFA]"
4900,670,830,250,"CCOc1ccc(C(N)=O)cc1Nc1nc(-c2sc(C(=O)NC3CCN(C(C)C)CC3)nc2C)cs1 [Example 122, 2-(5-Carbamoyl-2-ethoxy-phenylamino)-4′-methyl-[4,5′]bithiazolyl-2′-carboxylic acid (1-isopropyl-piperidin-4-yl)-amide.TFA]"
1800,1000,280,440,"CCOc1ccc(C(N)=O)cc1Nc1nc(-c2sc(C(=O)N(C)CCN(C)C)nc2C)cs1 [Example 123, 2-(5-Carbamoyl-2-ethoxy-phenylamino)-4′-methyl-[4,5′]bithiazolyl-2′-carboxylic acid (2-dimethylamino-ethyl)-methyl-amide.TFA]"
6100,3700,650,670,"Cc1nc(CN2CCOCC2)sc1-c1csc(Nc2cc(C(N)=O)ccc2OC(C)C)n1 [Example 124, 4-Isopropoxy-3-(4′-methyl-2′-morpholin-4-ylmethyl-[4,5′]bithiazolyl-2-ylamino)-benzamide.TFA]"
4900,3200,580,780,"Cc1nc(CN2CCN(C(C)C)CC2)sc1-c1csc(Nc2cc(C(N)=O)ccc2OC(C)C)n1 [Example 125, 4-Isopropoxy-3-[2′-(4-isopropyl-piperazin-1-ylmethyl)-4′-methyl-[4,5]bithiazolyl-2-ylamino]-benzamide.TFA]"
11000,4700,1100,770,"Cc1nc(CN2CCCN(C)CC2)sc1-c1csc(Nc2cc(C(N)=O)ccc2OC(C)C)n1 [Example 126, 4-Isopropoxy-3-[4′-methyl-2′-(4-methyl-[1,4]diazepan-1-ylmethyl)-[4,5′]bithiazolyl-2-ylamino]-benzamide.TFA]"
8600,3500,730,650,"Cc1nc(CN2CCC(O)CC2)sc1-c1csc(Nc2cc(C(N)=O)ccc2OC(C)C)n1 [Example 127, 3-[2′-(4-Hydroxy-piperidin-1-ylmethyl)-4′-methyl-[4,5′]bithiazolyl-2-ylamino]-4-isopropoxy-benzamide.TFA]"
5200,2700,500,1300,"Cc1nc(CN2CCCCC2)sc1-c1csc(Nc2cc(C(N)=O)ccc2OC(C)C)n1 [Example 128, 4-Isopropoxy-3-(4′-methyl-2′-piperidin-1-ylmethyl-[4,5′]bithiazolyl-2-ylamino)-benzamide.TFA]"
5100,4700,720,1200,"Cc1nc(CN(C)C)sc1-c1csc(Nc2cc(C(N)=O)ccc2OC(C)C)n1 [Example 129, 3-(2′-Dimethylaminomethyl-4′-methyl-[4,5′]bithiazolyl-2-ylamino)-4-isopropoxy-benzamide.TFA]"
